Consider five molecules from patent US20120252721A1 (priority 2011, published 2012).

The subject of data set [1] is HCV genotype 1b Con1 strain subgenomic luciferase replicon (Zluc). Description: Luciferase replicon assay, genotype 1b. To be noted: Hepatitis C virus. It is filed as cell-based. In outline: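 Replicon-bearing Huh-7 cells (1×10^4 H1a-luc or 7.5×10^3 Zluc per well) dosed 3 h after plating with ten 5-fold compound dilutions, 72 h at 37 °C/5% CO2. Luciferase measured by ONE-glo luminescence; EC50 from dose-response fits, replicon-free Huh-7 as negative control.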
(A replicon is a self-replicating genome or part of one, used to study replication in cells.)

Data set [2] in a line: in vitro. The conditions noted are these: human; Table 1B, cellular viability. The format is cell-based, human. On the procedure: For cytotoxicity evaluation, HPC cells were treated with compounds as described above in the absence of the genotype 2a virus and cellular viability was monitored using the Cell Titer 96 AQueous One Solution Cell Proliferation Assay (Promega). Plates were then read at 490 nm in a Victor^3V 1420 multilabel counter (Perkin Elmer) and CC50 concentrations were determined using Microsoft Excel and XLfit 4.1 software.
For cytotoxicity evaluation, H1a-luc or Zluc cells were treated with compounds as described above and cellular viability was monitored using the Cell Titer 96 AQueous One Solution Cell Proliferation Assay (Promega). Plates were then read at 490 nm in a Victor^3V 1420 multilabel counter (Perkin Elmer) and CC50 concentrations were determined using Microsoft Excel and XLfit 4.1 software.

Data set [3] relates to HCV genotype 1a H77 strain subgenomic luciferase replicon (H1a-luc). Description: Luciferase replicon assay, genotype 1a. The format is cell-based. The conditions noted are these: Hepatitis C virus; genotype 1a; read-out: EC50 1a. The essentials:
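Huh-7 cells carrying H1a-luc subgenomic replicon (luciferase-neomycin phosphotransferase fusion), seeded at 1×10^4 cells/well, dosed 3 h later with ten 5-fold compound dilutions for 72 h at 37 °C. Replication read as luciferase luminescence; replicon-free Huh-7 cells as negative control. EC50 from dose-response curve fits.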

Data set [4] concerns HCV genotype 4a NS5A within the 1b-replicon. Description: Luciferase replicon assay, NS5A-intergenotypic stable cell line genotype 4a. The conditions noted are these: Hepatitis C virus, read-out: EC50 4a. The format is cell-based. An excerpt: (§1) The nucleotide sequences of the NS5A region of genotype 2a (GenBank Accession # AB047639), genotype 3a (GenBank Accession #D17763), and genotype 4a (GenBank Accession# DQ418788) were synthesized by an outside vendor. The NS5A region of each of these genotypes included the first 11 amino acids of the protease recognition sequence of genotype 1b, as well as the last 10 amino acids of genotype 1b. The NS5A gene cassettes were excised with site specific restriction endonucleases and ligated into a ZS11-luciferase genotype 1b backbone (backbone contains the genotype 1b NS3 protease, NS4a, NS4b, and NS5b coding regions) with similarly cut restriction enzyme sites. Thus, the newly constructed plasmid contains a genotype 2a-, 3a- or 4a-specific NS5A gene within the 1b-replicon.
(§2) These new intergenotypic plasmids were used to establish stable cell lines. RNA was generated from the NS5A intergenotypic plasmids and used in conjunction with a lipofectin reagent to transfect a cured Huh7 cell line. Transfected cells were selected for with G418. After selection has occurred the stable cell lines were propagated, tested for luciferase activity, and RT-PCR with genotype specific primers (either 1a, 2a, 3a, or 4a). Stable cell lines containing the intergenotypic replicon were then fully sequenced and analyzed for proper expression of NS3, NS5A and NS5B proteins.
(§3) Drug titration analysis was performed using the luciferase replicon assay described herein.
(§4) The HCV luciferase replicon assay measures the ability of a test compound to inhibit HCV replication in cell culture after 3 days of treatment in a human hepatoma cell line (Huh-7) bearing an HCV replicon containing a luciferase-neomycin phosphotransferase fusion gene. The inhibition of HCV replication was measured by quantification of luciferase protein expression. Briefly, Huh-7 cells containing either the HCV genotype 1a H77 strain or genotype 1b Con1 strain subgenomic luciferase replicon (H1a-luc or Zluc, respectively) were grown in DMEM containing glucose, L-glutamine and sodium pyruvate, 10% fetal bovine serum (FBS), 100 IU/mL penicillin, 100 μg/mL streptomycin, 2 mM GlutaMAX, non-essential amino acids and 0.25 (H1a-luc) or 0.5 (Zluc) mg/mL G418. GlutaMAX was obtained from Invitrogen, Corp.; all other media reagents were obtained from Mediatech, Inc. For dose-response testing, the cells were seeded in 96-well plates at 1×10^4 (H1a-luc) or 7.5×10^3 (Zluc) cells/well in a volume of 50 μL, and incubated at 37° C./5% CO2. Three hours after plating, 50 μL of ten 5-fold serial dilutions of compound were added, and cell cultures were incubated at 37° C./5% CO2 for 72 hours. In all cases, Huh-7 cells lacking the HCV replicon served as negative control. To assess luciferase expression, the media/compound was removed from the plates and ONE-glo Luciferase assay reagent (Promega) was added to each well. The assay plates were shaken for 3 minutes at room temperature and luciferase activity for each well was measured with a 1 sec read time on the Victor^3V multilabel counter using a 700 nm cut-off filter (Perkin Elmer). EC50 values were calculated from dose response curves from the resulting best-fit equations determined by Microsoft Excel and XLfit 4.1 software.

Data set [5] has as its system HCV genotype 3a NS5A within the 1b-replicon. Description: Luciferase replicon assay, NS5A-intergenotypic stable cell line genotype 3a. It is filed as cell-based. The conditions noted are these: Hepatitis C virus, read-out: EC50 3a.
Description: as §1, §2, §3, §4

The test system of data set [6] is HCV genotype 2a. Description: Genotype 2a assay (NS5A-intergenotypic luciferase replicon / genotype 2a infectious virus assay). The format is cell-based. To be noted: Hepatitis C virus, read-out: EC50 2a.
Description: as §1, §2, §3
The genotype 2a infectious virus assay measures the ability of a test compound to inhibit HCV replication in cell culture after 5 days of treatment at the time of HCV genotype 2a virus infection of a permissive human hepatoma cell line (HPC cells). The inhibition of HCV replication was measured by quantification of HCV core protein expression by an enzyme-linked immunosorbent assay (ELISA). Briefly, HPC cells were grown in DMEM containing glucose, L-glutamine and sodium pyruvate, 10% FBS, 100 IU/mL penicillin, 100 μg/mL streptomycin, 2 mM GlutaMAX, and non-essential amino acids. GlutaMAX was obtained from Invitrogen, Corp.; all other media reagents were obtained from Mediatech, Inc. For dose-response testing, ninety-six-well plates were seeded with HPC cells at a density of 2.5×10^3 cells/well in a volume of 50 μL, and incubated at 37° C./5% CO2. Three hours after plating, 50 μL of ten 5-fold serial dilutions of compound and 100 μL of genotype 2a virus were added, and cell cultures were incubated at 37° C./5% CO2. In all cases, mock infected HPC cells served as negative control. At 16 hours post treatment and infection, the virus inoculum was removed by aspiration. The cultures were treated at the same final concentrations of drug diluted in media and incubated for 4 additional days at 37° C./5% CO2. Subsequently, the core ELISA was performed as follows. The plates were fixed for 90 seconds with acetone/methanol (1:1, v/v), washed three times with KPL wash solution (KPL, Inc.), blocked for 1 hr at room temperature with TNE buffer containing 10% FBS and then incubated for 2 hr at 37° C. with the anti-HCV core mouse monoclonal antibody (Thermo Scientific) diluted in the same buffer. After washing three times with KPL wash solution, the cells were incubated for 1 hr at 37° C. with an anti-mouse immunoglobulin G-peroxidase conjugate in TNE/10% FBS. After washing as described above, the reaction was developed with O-phenylenediamine (Invitrogen). The reaction was stopped after 30 min with 2 NH2SO4, and absorbance was read at 490 nm in a Victor^3V 1420 multilabel counter (Perkin Elmer) and EC50 concentrations were determined using Microsoft Excel and XLfit 4.1 software.
The HCV luciferase replicon assay measures the ability of a test compound to inhibit HCV replication in cell culture after 3 days of treatment in a human hepatoma cell line (Huh-7) bearing an HCV replicon containing a luciferase-neomycin phosphotransferase fusion gene. […]

Data set [7] has as its system HCV. The conditions noted are these: combination therapy (Poynard et al.); cited from earlier work.

By EC50 is commonly meant the concentration at which the effect is half-maximal. The term CC50 denotes the concentration giving 50% cytotoxicity. Lower therefore signals harm at low concentration. For the molecule `COC(=O)NC(C(=O)N1CCCC1c1ncc(-c2cc3sc(-c4ccc5[nH]c(C6CCCN6C(=O)C(NC(=O)OC)C(C)C)nc5c4)cc3s2)[nH]1)C(C)C` (stereo in doubt) [Compound A176, ((S)-1-{(S)-2-[5-(5-{(S)-2-[1-((S)-2-methoxycarbonylamino-3-methyl-butyryl)-pyrrolidin-2-yl]-3H-benzoimidazol-5-yl}-thieno[3,2-b]thiophen-2-yl)-1H-imidazol-2-yl]-pyrrolidine-1-carbonyl}-2-methyl-propyl)-carbamic acid methyl ester], the EC50 in data set [1] was less than 0.1 nM; in data set [3], 0.1 to 1 nM; in data set [4] it was 0.1 to 1 nM; in data set [5], 0.1 to 1 nM; in data set [6], 0.1 to 1 nM. In data set [2], the CC50 is 10000 to 75000 nM.

As to `COC(=O)N[C@H](C(=O)N1CCC[C@H]1c1ncc(-c2ccc(-c3cc4sc(-c5ccc6[nH]c([C@@H]7CCCN7C(=O)[C@H](NC(=O)OC)c7ccccc7)nc6c5)cc4s3)cc2)[nH]1)C(C)C` [Compound A194, [(S)-1-((S)-2-{4-[4-(5-{(S)-2-[1-((R)-2-methoxycarbonylamino-2-phenyl-acetyl)-pyrrolidin-2-yl]-3H-benzoimidazol-5-yl}-thieno[3,2-b]thiophen-2-yl)-phenyl]-1H-imidazol-2-yl}-pyrrolidine-1-carbonyl)-2-methyl-propyl]-carbamic acid methyl ester], the EC50 in data set [1] is less than 0.1 nM; in data set [3], 0.1 to 1 nM; in data set [4], less than 0.1 nM; in data set [5] it was 0.1 to 1 nM; in data set [6], 1 to 10 nM. Further, the CC50 in data set [2] is greater than 75000 nM.

As to `COC(=O)N[C@H](C(=O)N1CCC[C@H]1c1nc2ccc(-c3csc4c(C#Cc5cnc([C@@H]6CCCN6C(=O)[C@H](NC(=O)OC)c6ccccc6)[nH]5)csc34)cc2[nH]1)C(C)C` [Compound A206], the EC50 in data set [1], in data set [4], in data set [5] and in data set [6] was less than 0.1 nM throughout. This molecule registered a CC50 in data set [2] greater than 75000 nM.

As to `COC(=O)N[C@@H](C(=O)N1CCCC1c1nc2ccc(-c3csc4c(-c5ccc6[nH]c(C7CCCN7C(=O)[C@H](NC(=O)OC)C(C)C)nc6c5)csc34)cc2[nH]1)c1ccccc1` (stereo partly drawn) [Compound A208], the EC50 in data set [1], in data set [3], in data set [4], in data set [5] and in data set [6] was less than 0.1 nM in each case. Besides, the CC50 in data set [2] is greater than 75000 nM.

Take alpha-interferon and ribavirin: the “sustained efficacy, share of patients” value in data set [7] was “about 40%”.
